Source: the supplement of paper PMC10307832

Experiments:
Assay in all cases: relative viability (nuclei count vs DMSO), 5 days (fraction); higher = more cells survive
[1] = compound: CC1=C(C(=NN1)C)CC2=C(C3=C(S2)N(C(=O)N(C3=O)C)CC(C)C)C(=O)N4C[C@@H](CO4)O + COc1cccc2cc(-c3nc([C@H]4CC[C@H](C(=O)O)CC4)n4ncnc(N)c34)[nH]c12 [OSI-027] (partner 0.5 µM)
Summary of the method: (§1)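 Relative viability equals treated-well nuclei counts divided by vehicle-well nuclei counts. Counts came from 4× images of lung cancer cell lines grown in 1536-well plates for 5 days after pin-tool dosing on the day after seeding. Dosing used one drug alone or a fixed anchor-drug dose plus five library-drug doses (not always all listed) in √10 steps, and values are medians of duplicate plates.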

[2] = compound: CC1=C(C(=NN1)C)CC2=C(C3=C(S2)N(C(=O)N(C3=O)C)CC(C)C)C(=O)N4C[C@@H](CO4)O + C[C@]1(O)C[C@@H](c2nc(-c3ccc4ccc(-c5ccccc5)nc4c3)c3c(N)nccn32)C1 [Linsitinib] (partner 1 µM)
Summary of the method: as §1

[3] = compound: CC1=C(C(=NN1)C)CC2=C(C3=C(S2)N(C(=O)N(C3=O)C)CC(C)C)C(=O)N4C[C@@H](CO4)O + N=C(N)NC(=N)NCCc1ccccc1 [Phenformin] (partner 250 µM)
Summary of the method: as §1

IDH-C35 + Luminespib = compound: Cc1ccccc1C(C(=O)NC1CCCCC1)N(C(=O)Cn1ccnc1C)c1cccc(F)c1 [IDH-C35] + CCNC(=O)c1noc(-c2cc(C(C)C)c(O)cc2O)c1-c1ccc(CN2CCOCC2)cc1 [Luminespib] (partner 0.01 µM)
Summary of the method: as §1

Cell Line | relative viability ([1]; first compound 0.0025 µM) | relative viability ([1]; first compound 0.007906 µM) | relative viability ([1]; first compound 0.025 µM) | relative viability ([1]; first compound 0.07906 µM) | relative viability ([1]; first compound 0.25 µM) | relative viability ([2]; first compound 0.0025 µM) | relative viability ([2]; first compound 0.007906 µM) | relative viability ([2]; first compound 0.025 µM) | relative viability ([2]; first compound 0.07906 µM) | relative viability ([2]; first compound 0.25 µM) | relative viability ([3]; first compound 0.0025 µM) | relative viability ([3]; first compound 0.007906 µM) | relative viability ([3]; first compound 0.025 µM) | relative viability ([3]; first compound 0.07906 µM) | relative viability ([3]; first compound 0.25 µM) | relative viability (IDH-C35 + Luminespib; first compound 0.08 µM) | relative viability (IDH-C35 + Luminespib; first compound 0.253 µM) | relative viability (IDH-C35 + Luminespib; first compound 0.8 µM) | relative viability (IDH-C35 + Luminespib; first compound 2.53 µM) | relative viability (IDH-C35 + Luminespib; first compound 8 µM)
NCI-H358 | 0.679 | 0.724 | 0.845 | 0.895 | 0.854 | 0.707 | 0.794 | 0.801 | 0.892 | 0.998 | 0.35 | 0.395 | 0.337 | 0.311 | 0.36 | 0.526 | 0.388 | 0.283 | 0.26 | 0.242
NCI-H1944 | 0.434 | 0.45 | 0.416 | 0.427 | 0.391 | 1.13 | 1.1 | 1.27 | 1.15 | 1.07 | 0.184 | 0.222 | 0.186 | 0.195 | 0.175 | 0.79 | 0.715 | 0.656 | 0.681 | 0.763
EPLC-272H | 0.275 | 0.225 | 0.312 | 0.314 | 0.308 | 1.24 | 1.13 | 1.32 | 0.986 | 1.27 | 0.362 | 0.272 | 0.281 | 0.298 | 0.361 | 0.262 | 0.265 | 0.605 | 0.351 | 0.428
NCI-H1915 | 0.647 | 0.667 | 0.646 | 0.694 | 0.659 | 1.12 | 1.13 | 1.08 | 1.05 | 1.17 | 0.365 | 0.329 | 0.358 | 0.345 | 0.357 | 0.787 | 0.715 | 0.755 | 0.815 | 0.747
NCI-H596 | 0.721 | 0.822 | 0.889 | 0.803 | 0.715 | 1.02 | 1.14 | 1.08 | 1.13 | 1.13 | 0.803 | 0.764 | 0.73 | 0.809 | 1.05 | 1.04 | 0.974 | 1.22 | – | 0.97
NCI-H322M | 0.529 | 0.539 | 0.483 | 0.64 | 0.5 | 0.92 | 0.975 | 0.942 | 0.899 | 0.722 | 0.825 | 0.673 | 0.793 | 0.93 | 0.829 | 0.921 | 0.784 | 0.826 | 0.833 | 0.942
NCI-H2228 | 0.68 | 0.61 | 0.683 | 0.609 | 0.649 | 0.912 | 1.07 | 0.672 | 0.764 | 0.674 | 0.366 | 0.377 | 0.327 | 0.403 | 0.247 | 0.213 | 0.152 | 0.111 | 0.184 | 0.155
NCI-H647 | 0.727 | 0.805 | 0.805 | 0.769 | 0.569 | 1.33 | 1.37 | 1.33 | 1.24 | 1.44 | 0.655 | 0.369 | 0.393 | 0.555 | 0.53 | 0.146 | 0.256 | 0.357 | 0.241 | 0.126
